Test results as given in patent US4657907A, “Low dosage compositions of finely pulverized 2,4-diamino-6-(2,5-dichlorophenyl)-1,3,5-triazine and pharmaceutically acceptable acid addition salts thereof and administration thereof” (Nippon Shinyaku Co., Ltd., priority 1981, dated 1987).
Where “and” joins values, the source holds several entries; their conditions need not be identical. Identical values can stand only once.

Key:
[1] = test system: ulcer formation induced by stress; test: Inhibition of stress ulcer formation (immobilization-water immersion method), oral; format: in vivo, rats; conditions: for dose dependency of stress ulcer inhibition: 0.3 to 30 mg/kg
Source text: Since 50 microns is a common particle diameter in pharmaceutical preparations, it was most surprising that such significant and important advantages resulted. Inhibition activity against stress ulcer in rats of the compound and pharmaceutically acceptable acid addition salts in the finely pulverized form are set forth in Table 2.

[2] = test system: rats; test: Acute toxicity (LD50), intraperitoneal injection; format: in vivo; conditions: dosages up to 3000 mg/kg, average particle diameter about 8 microns
Source text: This decrease in toxicity is totally unexpected and represents a significant and important advance in the art.

[3] = Body weight increase inhibition on chronic oral administration; format: in vivo, rats; conditions: for body weight increase: 10 mg/kg or more per day, chronic oral, rats
Source text: A further advantage resulted from body weight increase inhibition which is one of the main side effects of the compound and salts of the present invention. […] This is a side effect of triazines of this type.
The average particle sizes were 8 microns for the compound according our copending application as compared to the same compound having an average particle diameter of 50 microns.

[4] = test system: ulcers; test: Clinical experiments: rate of recovery or cure of ulcers in patients; format: in vivo, humans
Method: Clinical experiments were conducted wherein patients were given 1, 2 and 4 mg/day of 2,4-diamino-6-(2,5-dichlorophenyl)-1,3,5-triazine in separate groups. There were 133 patients participating in the group and 123 were separately analyzed (groups of 20, 46 and 57). The rate of recovery or cure of ulcers during those clinical trials over the period indicated was as follows: […]

[5] = Clinical experiments: side effects in patients; format: in vivo, humans; conditions: 4 mg group
Method: Clinical experiments were conducted wherein patients were given 1, 2 and 4 mg/day of 2,4-diamino-6-(2,5-dichlorophenyl)-1,3,5-triazine in separate groups. There were 133 patients participating in the group and 123 were separately analyzed (groups of 20, 46 and 57). The rate of recovery or cure of ulcers during those clinical trials over the period indicated was as follows:
Only one side effect was noted. There was an increase in transaminase (GOT and GPT) observed in one case (1.8% of the total) in the 4 mg group.

[6] = Average particle diameter after jet milling, Coulter Counter TA-II; format: physicochemical; conditions: jet mill PJM-100 NP; dispersed in physiological saline with Tween-80
Method: 2,4-diamino-6-(2,5-dichlorophenyl)-1,3,5-triazine and pharmaceutically acceptable acid addition salts thereof may be finely pulverized to achieve the average particle diameter of 20 microns or less by using jet Mill PJM-100NP (Nippon Newmatic MEG Co.). The pulverization is carried out by feeding 2 kg or less of the substance per hour. An average particle diameter of about 8 microns may be prepared in that manner. If necessary, auxiliary pulverizing agents such as starch, anhydrous silicic acid, etc. may be used. In measuring average particle size, the powder is dispersed in physiological saline solution containing one drop of Tween-80 with the aid of an ultrasonic homogenizer for 30 seconds and measured by Coleter Counter TA-II (Coulter Electronics Co., U.S.A.) equipped with aperture tube of 100 microns.
2,4-Diamino-6-(2,5-dichlorophenyl)-1,3,5-triazine is powdered by supplying it at a rate of not more than 2 kg/hour to a Jet Mill PJM-100 NP (Nippon Newmatic Mfg. Co.). The pulverized pharmaceutical is dispersed in a physiological saline solution containing one drop of Tween-80 by the use of ultrasonic homogenizer for 30 seconds and their particle diameter in average is measured by Coulter Counter TA-II (Coleter Eelectronics Co., USA) and the result is about 8 microns.

[7] = test system: ulcer formation induced by stress; test: Inhibition of stress ulcer formation (immobilization-water immersion method), oral; format: in vivo, rats; conditions: average particle diameter about 50 microns; for Inhibition Rate (stress ulcer): three repeat values
[8] = 0.3 mg/kg, finely pulverized form
[9] = 1.0 mg/kg, finely pulverized form
[10] = 3.0 mg/kg, finely pulverized form
[11] = 10 mg/kg, finely pulverized form

SMILES: Nc1nc(N)nc(-c2cc(Cl)ccc2Cl)n1 [Substance (I), 2,4-diamino-6-(2,5-dichlorophenyl)-1,3,5-triazine]
- Inhibition Rate (stress ulcer) [1, 8]: 33%
- Inhibition Rate (stress ulcer) [1, 9]: 45%
- Inhibition Rate (stress ulcer) [1, 10]: 63%
- Inhibition Rate (stress ulcer) [1, 11]: 70%
- Inhibition Rate (stress ulcer) ([1]; 30 mg/kg, finely pulverized form): 85%
- dose dependency of stress ulcer inhibition ([1]; finely pulverized form): linear dose dependency
- activity on ulcer formation induced by stress ([1]; oral, 1 mg/kg, finely pulverized (compound of earlier invention)): effective
- lethality [2]: no rats were killed
- body weight increase [3]: body weight increase was inhibited
- recovery of body weight ([3]; about 8 microns compared to about 50 microns): far faster
- body weight increase inhibition (side effect) ([3]; average particle diameter about 8 microns): only transient and moderate
- rate of recovery or cure of ulcers ([4]; 1 mg/day, 4 weeks): 20.0%
- rate of recovery or cure of ulcers ([4]; 1 mg/day, 8 weeks): 50.0%
- rate of recovery or cure of ulcers ([4]; 2 mg/day, 4 weeks): 17.4%
- rate of recovery or cure of ulcers ([4]; 2 mg/day, 8 weeks): 47.8%
- rate of recovery or cure of ulcers ([4]; 4 mg/day, 4 weeks): 41.6%
- rate of recovery or cure of ulcers ([4]; 4 mg/day, 8 weeks): 56.1%
- recovery rate of ulcer improvement, degree of ulcer, effect against subjective and non-subjective symptoms ([4]; hospitalized patients, 4 mg group compared with other groups): marked superiority
- increase in transaminase (GOT and GPT), cases ([5]; only side effect noted): one case
- increase in transaminase (GOT and GPT), incidence ([5]; printed as % of the total): 1.8%
- average particle diameter [6]: about 8 microns
- Inhibition Rate (stress ulcer) ([7]; 0.37 mg/kg per os): 37% and 46% and 29%
- Inhibition Rate (stress ulcer) ([7]; 3.72 mg/kg per os): 62% and 47% and 33%
- activity on ulcer formation induced by stress ([7]; oral, 5 mg/kg): ineffective

SMILES: Nc1nc(N)nc(-c2cc(Cl)ccc2Cl)n1 [Substance (II)]
- Inhibition Rate (stress ulcer) [1, 8]: 35%
- Inhibition Rate (stress ulcer) [1, 9]: 51%
- Inhibition Rate (stress ulcer) [1, 10]: 70%
- Inhibition Rate (stress ulcer) [1, 11]: 85%
- dose dependency of stress ulcer inhibition ([1]; finely pulverized form): linear dose dependency
- ED50 (stress ulcer inhibition) ([1]; per os, finely pulverized form, from Table 2 data): 0.90 mg/kg
- body weight increase [3]: body weight increase was inhibited
- improvement in body weight side effect ([3]; maleate salt according to the invention compared with maleate salt of about 50 microns): particularly dramatic
